According to patent US9051278B2, “3,4-disubstituted 1H-pyrazole compounds and their use as cyclin dependent kinase and glycogen synthase kinase-3 modulators” (Astex Therapeutics, Ltd., priority 2003, dated 2015):

Assays:
[1] = test system: human colon carcinoma cell line HCT 116; assay: Anti-proliferative activity, Alamar Blue assay; format: cell-based; conditions: HCT 116, 72 hours, read-out: IC50 (inhibition of cell growth)
Method: The anti-proliferative activities of compounds of the invention are determined by measuring the ability of the compounds to inhibition of cell growth in a number of cell lines Inhibition of cell growth is measured using the Alamar Blue assay (Nociari, M. M, Shalev, A., Benias, P., Russo, C. Journal of Immunological Methods 1998, 213, 157-167). The method is based on the ability of viable cells to reduce resazurin to its fluorescent product resorufin. For each proliferation assay cells are plated onto 96 well plates and allowed to recover for 16 hours prior to the addition of inhibitor compounds for a further 72 hours. At the end of the incubation period 10% (v/v) Alamar Blue is added and incubated for a further 6 hours prior to determination of fluorescent product at […]. In the case of the non-proliferating cell assay cells are maintained at confluence for 96 hour prior to the addition of inhibitor compounds for a further 72 hours. The number of viable cells is determined by Alamar Blue assay as before. All cell lines are obtained from ECACC (European Collection of cell Cultures).

[2] = molecular target: T1, GSK3-β (Homo sapiens, UniProt P49841); assay: Inhibitory activity against glycogen synthase kinase-3 (Protocol A or B); format: biochemical; conditions: either Protocol A or Protocol B; read-out: IC50 (GSK3-B assays)
T1 construct: purchased Upstate Discovery
T1 sequence (P49841 whole entry): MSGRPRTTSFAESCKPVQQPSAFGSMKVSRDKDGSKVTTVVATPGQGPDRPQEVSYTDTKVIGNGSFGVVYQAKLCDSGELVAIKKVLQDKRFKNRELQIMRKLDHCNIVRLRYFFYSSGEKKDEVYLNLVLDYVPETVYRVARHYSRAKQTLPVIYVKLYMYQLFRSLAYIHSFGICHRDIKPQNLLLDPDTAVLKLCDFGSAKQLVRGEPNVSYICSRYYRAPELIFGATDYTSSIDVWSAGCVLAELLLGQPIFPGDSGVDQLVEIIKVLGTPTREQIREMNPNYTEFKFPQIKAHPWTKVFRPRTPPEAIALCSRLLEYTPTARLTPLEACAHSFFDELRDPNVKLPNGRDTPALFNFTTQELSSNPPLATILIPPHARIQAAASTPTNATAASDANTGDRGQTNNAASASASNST
Method: The activities of the compounds of the invention as inhibitors of GSK-3 were determined using either Protocol A or Protocol B below.
The reaction is allowed to proceed for 3 hours before being stopped with an excess of ortho-phosphoric acid (5 μl at 2%). The filtration procedure is as for Activated CDK2/CyclinA assay above.
GSK3β (human) is diluted to a 10× working stock in 50 mM Tris pH 7.5, 0.1 mM EGTA, 0.1 mM sodium vanadate, 0.1% β-mercaptoethanol, 1 mg/ml BSA.

SMILES	IC50 [1] [µM]	IC50 [2] [µM]
CC(C)(C)C1CCC(NC(=O)c2n[nH]cc2NC(=O)c2c(F)cccc2F)CC1 (centres unmarked) [Example 77]	< 20	< 10
CN1CCN(c2ccc(CNC(=O)c3n[nH]cc3NC(=O)c3c(F)cccc3F)cc2)CC1 [Example 64]	< 20	
O=C(NC1CCNCC1)c1n[nH]cc1NC(=O)c1c(Cl)cccc1Cl [Example 150]	< 20	
COc1ccc(CNC(=O)c2n[nH]cc2NC(=O)c2c(F)cccc2F)cc1 [Example 62]	< 20	
